ChEMBL document CHEMBL1146265, “Synthesis and structure-activity studies of antofine analogues as potential anticancer agents” (Bioorg Med Chem Lett, 2007)

Tests used:
Format in all cases: functional, cell-based
[1] = system: HT-1080; assay: Cytotoxicity against human HT1080 cells by SRB assay
[2] = system: A549; assay: Cytotoxicity against human A549 cells by SRB assay
[3] = system: HCT-116; assay: Cytotoxicity against human HCT116 cells by SRB assay

SMILES	IC50 [1]	IC50 [2]	IC50 [3]
COc1cc2c3c(c4ccc(O)cc4c2cc1OC)CN1CCCC1C3 (stereo not given)	0.0011 µM	0.0014 µM	0.0011 µM
COc1ccc2c3c(c4cc(OC(C)C)c(OC)cc4c2c1)CC1CCCN1C3 (stereo not given)	> 1 µM	> 1 µM	0.783 µM
COc1ccc2c3c(c4cc(OC)c(OC)cc4c2c1)C[C@H]1CCCN1C3 [(-)-ANTOFINE]	0.0096 µM	0.0104 µM	0.0099 µM
COc1ccc2c3c(c4cc(O)c(OC)cc4c2c1)CC1CCCN1C3 (stereo not given)	0.0726 µM	> 0.1 µM	0.0683 µM
COc1cc2c3c(c4ccc(OC(C)C)cc4c2cc1OC)CN1CCCC1C3 (stereo not given)	0.0236 µM	0.0405 µM	0.0192 µM
COc1cc2c3c(c4ccccc4c2cc1OC)CN1CCCC1C3 (stereo not given)	0.0591 µM	> 0.1 µM	0.0493 µM
COc1ccc2c3c(c4cc(OC)c(OC(C)C)cc4c2c1)CC1CCCN1C3 (stereo not given)	0.0374 µM	0.0539 µM	0.0247 µM
COc1ccc2c3c(c4cc(OC)c(O)cc4c2c1)CC1CCCN1C3 (stereo not given)	0.0198 µM	0.0498 µM	0.0214 µM
COc1ccc2c3c(c4cc5c(cc4c2c1)OCO5)CC1CCCN1C3 (stereo not given)	0.453 µM	0.747 µM	0.364 µM
COc1ccc2c3c(c4cc(OC)c(OC)cc4c2c1)CC1CCCN1C3 (stereo not drawn) [(+/-)-ANTOFINE]	0.0275 µM	0.0251 µM	0.0294 µM
